Columns and labels:
DIO mice [1] = experiment: Anti-obesity effect for DIO mice (body weight); type: in vivo, C57BL/6 mice; conditions: Mus musculus, 672 h; 4 weeks, 150 mg/kg, oral gavage once daily
Method in brief: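 Female C57BL/6 mice made obese by ≥10 weeks of high-fat diet; compounds suspended in 0.5% methyl cellulose and given by oral gavage once daily for 28 days. Body weight measured twice weekly; effect (%) = (control weight − treated weight)/control weight × 100.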

DIO mice [2] = experiment: Organ weights and blood biochemistry of DIO mice after 28 days of administration; type: in vivo, C57BL/6 mice; conditions: 150 mg/kg
Description: Five-week-old female C57BL/6 mice (Narabio Co., Ltd.) were purchased and fed with only high-fat diet for at least 10 weeks to produce diet induced obesity ([…]) mice. Samples were exactly taken from Preparation Example 1 (glabridin) and the compounds of Examples of the present invention (Compounds 1 to 5, 7, 9, 11, 14 to 16, 21, and 23) according to the administration dose and put into Falcon tubes, 3 ml of a 0.5% methyl cellulose aqueous solution was added thereto and a vortex mixer was used to primarily mix the ingredients in a soft manner, and then a homogenizer (30,000 rpm, Ultra-Turrax® T10 Basic, IKA) was used to treat the sample for 3 minutes while 1.5 ml of a 0.5% methyl cellulose aqueous solution was added thereto. The sample thus prepared was administered through oral gavage using a disposable plastic syringe once daily for 28 days (4 weeks). The body weight was measured twice a week while the DIO mice were bred in this manner. Based on the data thus calculated, the anti-obesity effect (%) was calculated according to the equation defined as follows. Anti-Obesity Effect={(Body weight of control group)−(Body weight of experimental group)}/(Body weight of control group)×100
After the experiment was performed for 28 days (4 weeks) as described above, blood was simultaneously taken while the experimental animal was finally sacrificed, and each of the organs (liver, heart, kidney, pancreas, fat tissues and the like) was removed to measure the weight and observe peculiar matters.
In Table 3, { }, ( ) and the like were used in order to differentiate experiments which had been performed at different periods. Experiments without the parenthesis were those simultaneously performed under the same conditions.

BV2 microglia cells = experiment: BV2 cell NO assay (LPS-induced NO production, Griess reagent); type: cell-based; conditions: Mus musculus, BV-2, LPS 1 μg/ml, 24 hours
Method in brief: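 BV2 cells; NO suppression tested only at concentrations showing no cytotoxicity in an MTT assay (0.5 mg/ml MTT, absorbance 540 nm). NO read by absorbance at 540 nm; suppression rate taken as the difference in NO produced between control and treated groups; mean of three repeats.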

RAW264.7 macrophages = experiment: RAW264.7 macrophage NO assay (LPS-induced NO production, Griess reagent); type: cell-based; conditions: for IC50: Mus musculus, RAW264.7, NO production, LPS 1 μg/ml, 24 hours; for effect of suppressing the production of NO: RAW264.7 macrophages, in words
Method in brief: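 MTT (0.5 mg/ml, 4 h) viability read at 540 nm set non-cytotoxic compound concentrations for the NO test. NO suppression, read by absorbance at 540 nm, was the difference in NO between control and treated groups; values are means of three repeats.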

[3] = Chemical stability in 1% HCl in MeOH (HPLC); type: physicochemical; conditions: for stability in words: until 3 days (72 hours)
Description: (§1) The relative chemical stability of glabridin of Preparation Example 1, Example 3 (Compound 4), Example 4 (Compound 5) and Example 14 (Compound 15) were compared with each other. That is, 50 mg of each of glabridin, Compound 4, Compound 5, and Compound 15 was exactly weighed, dissolved in 50 ml of 1% HCl in MeOH and 10 ml of 1% NaOH in MeOH, and the concentrations of the compounds were examined by HPLC at each time level of 0, 8 hrs, 12 hrs, 24 hrs, 48 hrs, and 72 hrs. At this time, the concentrations of the compounds remaining in 1% HCl in MeOH and 1% NaOH in MeOH were determined using an internal standard (Compound 14 of Example 13). That is, 10 mg of Compound 14 was exactly weighed and dissolved in 100 ml of acetonitrile, 9 ml of this solution was mixed with 1 ml of the sample aliquoted at each time level, the mixture was analyzed by HPLC, and the concentrations of the compounds in the internal standard and in the above samples were determined by comparing the initial values.
(§2) The concentrations of the compounds remaining in 1% HCl in MeOH and 1% NaOH in MeOH at each time level are in the following Table 8 and FIG. 7 and the following Table 9 and FIG. 8, respectively.
(§3) The numerical values exceeding 100% in the following Tables 8 and 9 show those measured at a concentration is slightly higher than the initial measurement value, and this is due to the fact that an average value of the measured values was simply shown without considering a statistical error generated during the measurement. Since the measured value of about 95% or more is deemed to have practically no change in concentration, it may be seen that the compounds of the present invention are excellent in chemical stability.

[4] = Chemical stability in 1% NaOH in MeOH (HPLC); type: physicochemical; conditions: for stability in words: until 3 days (72 hours)
Description: as §1, §2, §3

SMILES: CCCc1ccc(C2COc3c(ccc4c3CCC(C)(C)O4)C2)c(O)c1 (stereo not shown) [Compound 5, 3-(2-hydroxy-4-propylphenyl)-8,8-dimethyl-2,3,4,8,9,10-hexahydropyrano [2,3-f] chromene]
- inhibition in vivo at 150 mg/kg (DIO mice [1]): 19%
- ALT (U/L) (DIO mice [2]; ( ) experiment): (50) U/L
- AST (U/L) (DIO mice [2]; ( ) experiment): (131) U/L
- BMI (DIO mice [2]; ( ) experiment): (3.0)
- FFA (μEq/L) (DIO mice [2]; ( ) experiment): (2310) μEq/L
- Fat (g), weight of fat removed around the epididymis and the kidney (DIO mice [2]; ( ) experiment): (1.04) g
- LDL (mg/dL) (DIO mice [2]; ( ) experiment): (12) mg/dL
- Liver (g), weight of liver (DIO mice [2]; ( ) experiment): (1.15) g
- IC50 (BV2 microglia cells): 3.8 µM
- IC50 (RAW264.7 macrophages): 5.2 µM
- effect of suppressing the production of NO (RAW264.7 macrophages): excellent
- concentration of compound remaining [3]; 0: 100%
- concentration of compound remaining ([3]; 8 h): 102%
- concentration of compound remaining ([3]; 24 h): 102%
- concentration of compound remaining ([3]; 48 h): 101%
- concentration of compound remaining ([3]; 72 h): 101%
- stability in words [3]: very stable
- concentration of compound remaining [4]; 0: 100%
- concentration of compound remaining ([4]; 8 h): 101%
- concentration of compound remaining ([4]; 24 h): 102%
- concentration of compound remaining ([4]; 48 h): 100%
- concentration of compound remaining ([4]; 72 h): 102%
- stability in words [4]: very stable

SMILES: CCOc1ccc(C2COc3c(ccc4c3CCC(C)(C)O4)C2)c(O)c1 (stereo not shown) [Compound 15, 3-(2-hydroxy-4-ethoxyphenyl)-8,8-dimethyl-2,3,4,8,9,10-hexahydropyrano [2,3-f] chromene]
- inhibition in vivo at 150 mg/kg (DIO mice [1]): 14%
- ALT (U/L) (DIO mice [2]; experiment without parenthesis): 52 U/L
- AST (U/L) (DIO mice [2]; experiment without parenthesis): 143 U/L
- BMI (DIO mice [2]; experiment without parenthesis): 3.6
- FFA (μEq/L) (DIO mice [2]; experiment without parenthesis): 1760 μEq/L
- Fat (g), weight of fat removed around the epididymis and the kidney (DIO mice [2]; experiment without parenthesis): 2.02 g
- LDL (DIO mice [2]; experiment without parenthesis): 10 mg/dL
- Liver (g), weight of liver (DIO mice [2]; experiment without parenthesis): 1.28 g
- IC50 (BV2 microglia cells): 2.7 µM
- IC50 (RAW264.7 macrophages): 6.8 µM
- effect of suppressing the production of NO (RAW264.7 macrophages): excellent
- concentration of compound remaining [3]; 0: 100%
- concentration of compound remaining ([3]; 8 h): 98%
- concentration of compound remaining ([3]; 24 h): 100%
- concentration of compound remaining ([3]; 48 h): 98%
- concentration of compound remaining ([3]; 72 h): 100%
- stability in words [3]: very stable
- concentration of compound remaining [4]; 0: 100%
- concentration of compound remaining ([4]; 8 h): 100%
- concentration of compound remaining ([4]; 24 h): 100%
- concentration of compound remaining ([4]; 48 h): 98%
- concentration of compound remaining ([4]; 72 h): 100%
- stability in words [4]: very stable

Source: US9783551B2, “Pyranochromenyl phenol derivative, and pharmaceutical composition for treating metabolic syndrome or inflammatory disease” (GLACEUM, INC., priority 2013, dated 2017)
